Reference: US12577230B2, “2-(3-pyridin-2-yl-4-quinolin-4-yl-pyrazol-1-yl)- acetamide derivatives as inhibitors of transforming growth factor-beta receptor I/ALK5” (AGOMAB SPAIN S.L.U., priority 2020, dated 2026)

Key:
ALK-5 = molecular target: T1, ALK-5 (Homo sapiens, UniProt P36897); experiment: Determination of the intracellular TGF-beta kinase activity (ALK-5), AlphaLISA SureFire p-SMAD3 in A549 cells; assay type: cell-based; settings: A549 cell line, TGF-β2 activated, p-SMAD3(Ser423/425)
T1 construct: endogenous in cells; host or cells: A549
T1 sequence (P36897 34-503): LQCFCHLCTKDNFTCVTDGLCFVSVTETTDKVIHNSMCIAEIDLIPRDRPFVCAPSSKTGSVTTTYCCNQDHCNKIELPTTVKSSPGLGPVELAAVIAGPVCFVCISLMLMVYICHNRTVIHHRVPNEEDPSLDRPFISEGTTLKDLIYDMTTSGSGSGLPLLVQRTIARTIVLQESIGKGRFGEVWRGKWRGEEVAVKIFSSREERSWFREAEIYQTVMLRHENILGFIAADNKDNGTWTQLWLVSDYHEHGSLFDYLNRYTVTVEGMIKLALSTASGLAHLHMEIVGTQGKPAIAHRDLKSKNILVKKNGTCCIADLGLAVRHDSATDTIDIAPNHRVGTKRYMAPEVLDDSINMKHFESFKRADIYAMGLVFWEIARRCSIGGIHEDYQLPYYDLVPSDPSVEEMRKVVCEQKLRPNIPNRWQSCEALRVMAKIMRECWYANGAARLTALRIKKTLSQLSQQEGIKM
Procedure: Determination of the Intracellular TGF-Beta Kinase Activity (ALK-5)
The experiments were carried out in A549 cell line. 30000 cells were seeded in 200 μl of culture medium (Sigma D6046) supplemented with L-Glutamine (Sigma G7513), Penicillin/Streptomycin (Invitrogen 11058) and FBS (Sigma F9665) on a 96 wells microplate (Becton Dickinson 353072). After 16 hours medium was changed to serum free medium. Galunisertib, as inhibitor ligand (Cayman CAY-15312) and recombinant Human TGF-β2 (R&D Systems 302-B2-002) as activator of the ALK-5, were added in their corresponding wells and incubated following the instructions of the Alphascreen AlphaLISA@SureFire® Ultra™ p-SMAD3(Ser423/425) Kit (Perkin Elmer ALSU-PSM3-A500).

[1] = Determination of plasma stability in human plasma; assay type: in vitro ADME; settings: 10 μM, 37° C.
Procedure: Determination of Plasma Stability of Some Compounds
Human plasma pooled from healthy donors extracted in citrate tubes was employed in the assay. Briefly, plates containing 10 μM compounds in plasma (total volume: 50 μL) were incubated at 37° C. at the different times (0, 30, 120 and 360 min). Then 100 μl Acetonitrile were added for precipitating plasma protein, and the plate was centrifuged at 46000 g for 60 min at 5° C. Supernatant was taken and analysed by UPLC/MS/MS for sample quantification. Stationary phase: Reverse phase Acquity UPLC® BEH C18 1.7 μm (2.1 mm×50 mm) (Waters). Mobile phase: 0.1% Formic acid water/0.1% formic acid in acetonitrile.
Flow: 0.6 ml/min. The chromatographic equipment employed was an UPL QSM Waters Acquity. Compound concentrations were calculated from the MS peak areas.

Human TGFβR-1 = molecular target: T2, Human TGFβR-1 (Homo sapiens, UniProt P36897); experiment: In vitro enzyme assay: inhibition of TGFβR-1 (ADP-Glo kinase assay); assay type: biochemical; settings: TGFβR-1 kinase 50 ng/well, 50 μM ATP, 120 min RT
T2 construct: purchased Promega V4092
T2 sequence (P36897 34-503): T1 sequence (P36897 34-503)
Text: In the present application are used the following abbreviations, with the corresponding definitions: • AcOH: Acetic Acid • ACVR2B: activin A receptor, type IIB • ALKn: activin receptor-like kinase n • ATP: adenosin triphosphate • Boc2O: tert-butyl dicarbonate • Boc: tert-Butoxycarbonyl • Clint: Intrinsic clearance • DIPEA: N,N-Diisopropylethylamine • DMA: Dimethylacetamide • DMAP: 4-Dimethylaminopyridine • DMF: N,N-Dimethylformamide • DMSO: Dimethyl sulfoxide • EDCl: N-(3-Dimethylaminopropyl)-N′-ethylcarbodiimide) • Et3N: Triethylamine • EtOAc: Ethyl acetate • EtOH: ethanol • FBS: Fetal bovine serum • H: hour • HATU: 1-[Bis(dimethylamino)methylene]-1H-1,2,3-triazolo[4,5-b]pyridinium 3-oxide hexafluorophosphate • HOBT: Hydroxybenzotriazole • HPLC: High-performance liquid chromatography • ^1H-NMR: Proton nuclear magnetic resonance • K2EDTA: ethylenediaminetetracetic acid dipotassium salt • LC: Liquid chromatography • LiHMDS: Lithium bis(trimethylsilyl)amide • LLOQ: lower limit of quantification • MeCN: Acetonitrile • MeOH: Methanol • Min: minutes • MS: Mass spectroscopy • MTBE: Methyl tert-butyl ether • NBS: N-Bromosuccinimide • NaCMC: Sodium carboxymethyl cellulose • Rt: retention time • RT: room temperature • Sem: 2-(Trimethylsilyl)ethoxymethyl • TGFβ: transforming growth factor-β • THF: Tetrahydrofuran • THF:EtOH: Tetrahydrofuran:ethanol • UPLC: ultra high-performance liquid chromatography • UV: Ultraviolet Pharmacological Activity In Vitro Enzyme Assay: Inhibition of TGFβR-1 Human TGFβR-1 inhibition experiments were carried out in a white 384-microplate low flange (Corning 3572) with ADP-Glo kinase Assay Kit (Promega V9101) and TGFβR-1 Kinase Enzyme System (Promega V4092). Test compounds and standard Galunisertib (Cayman 15312), 50 ng/well TGFβR-1 kinase and 50 μM ATP were added in a final volume of 10 μL/well, using Reaction buffer supplied by kit as assay buffer. The reaction mixture was incubated in gentle shaking for 120 min at RT, after incubation of 10 μL of ADP-Glo Reagent was added and incubated in gentle shaking for 40 min at RT. 20 μL of Kinase Detection Reagent was added and plate was incubated in gentle shaking for 30 min at RT. Luminescence (1000 ms) was measured in Perkin Elmer EnSpire Multimode plate reader. Results

| Structure (SMILES) | IC50 (ALK-5) | remaining percentage 0 min [1] | remaining percentage 30 min [1] | remaining percentage 120 min [1] | remaining percentage 360 min [1] | IC50 (Human TGFβR-1) |
| --- | --- | --- | --- | --- | --- | --- |
| Cc1cccc(-c2nn(CC(=O)Nc3cc(F)cc(C(=O)OCCN(C)C)c3)cc2-c2ccnc3ccccc23)n1 [Example 1, 2-(dimethylamino)ethyl 3-fluoro-5-(2-(3-(6-methylpyridin-2-yl)-4-(quinolin-4-yl)-1H-pyrazol-1-yl)acetamido)benzoate] | < 1000 nM | 100% | 0% | 0% | 0% | < 100 nM |
| Cc1cccc(-c2nn(CC(=O)Nc3ccc(C(=O)OCCN(C)C)nc3)cc2-c2ccnc3ccccc23)n1 [Example 5, 2-(dimethylamino)ethyl 5-(2-(3-(6-methylpyridin-2-yl)-4-(quinolin-4-yl)-1H-pyrazol-1-yl)acetamido)picolinate] | > 1000 nM | 100% | 10% | 0% | 0% | < 100 nM |
| CCN(CC)CCOC(=O)c1cc(F)cc(NC(=O)Cn2cc(-c3ccnc4ccccc34)c(-c3cccc(C)n3)n2)c1 [Example 7, 2-(diethylamino)ethyl 3-fluoro-5-(2-(3-(6-methylpyridin-2-yl)-4-(quinolin-4-yl)-1H-pyrazol-1-yl)acetamido)benzoate] | < 1000 nM | 100% | 16.0% | 3.3% | 0.1% | 100 to 250 nM |
| Cc1cccc(-c2nn(CC(=O)Nc3cc(F)cc(C(=O)OCC4CCN(C)CC4)c3)cc2-c2ccnc3ccccc23)n1 [Example 9, (1-methylpiperidin-4-yl)methyl 3-fluoro-5-(2-(3-(6-methylpyridin-2-yl)-4-(quinolin-4-yl)-1H-pyrazol-1-yl)acetamido)benzoate] | < 1000 nM | 100% | 16.6% | 3.1% | 0% | < 100 nM |
| CNCCOC(=O)c1cc(F)cc(NC(=O)Cn2cc(-c3ccnc4ccccc34)c(-c3cccc(C)n3)n2)c1 [Example 15, 2-(methylamino)ethyl 3-fluoro-5-(2-(3-(6-methylpyridin-2-yl)-4-(quinolin-4-yl)-1H-pyrazol-1-yl)acetamido)benzoate] | > 1000 nM |  |  |  |  | < 100 nM |
| Cc1cccc(-c2nn(CC(=O)Nc3cc(F)cc(C(=O)OCCN4CCNCC4)c3)cc2-c2ccnc3ccccc23)n1 [Example 19, 2-(piperazin-1-yl)ethyl 3-fluoro-5-(2-(3-(6-methylpyridin-2-yl)-4-(quinolin-4-yl)-1H-pyrazol-1-yl)acetamido)benzoate] | < 1000 nM | 100% | 1.9% | 0.3% | 0% | < 100 nM |
| Cc1cccc(-c2nn(CC(=O)Nc3cc(F)cc(C(=O)OC4CCNCC4)c3)cc2-c2ccnc3ccccc23)n1 [Example 21, piperidin-4-yl 3-fluoro-5-(2-(3-(6-methylpyridin-2-yl)-4-(quinolin-4-yl)-1H-pyrazol-1-yl)acetamido)benzoate] | > 1000 nM | 100% | 74.3% | 34.2% | 6.3% | < 100 nM |
